{"source": "patent US10543178B2", "about": "“Dosage forms and related therapies” (PhilERA New Zealand Limited, priority 2002, dated 2020)", "key": {"[1]": {"text": "All animals were fasted overnight prior to surgery but continued to have ad libitum access to deionized water. […] The femoral artery and vein were cannulated with a solid-state blood pressure transducer (Mikrotip™ 1.4F, Millar Instruments, Texas, USA) and a saline filled PE 50 catheter respectively. The ureters were exposed via a midline abdominal incision, cannulated using polyethylene catheters (external diameter 0.9 mm, internal diameter 0.5 mm) and the wound sutured closed. The trachea was cannulated and the animal ventilated at 70-80 breaths·min^−1 with air supplemented with 02 (Pressure Controlled Ventilator, Kent Scientific, Connecticut, USA). The respiratory rate and end-tidal pressure (10-15 cmH2O) were adjusted to maintain end-tidal CO2 at 35-40 mmHg (SC-300 CO2 Monitor, Pryon Corporation, Wisconsin, USA). Body temperature was maintained at 37° C. throughout surgery and the experiment by a heating pad. Estimated fluid loss was replaced with intravenous administration of 154 mmol·l^−1 NaCl solution at a rate of 5 ml·kg^−1·h^−1.\nFollowing surgery and a 20 min stabilization period, the experimental protocol was started. […] Control animals received an equivalent volume of saline. Urine was collected in 15 min aliquots throughout the experiment in pre-weighed polyethylene epindorf tubes. At the end of the experiment a terminal blood sample was taken by cardiac puncture and the separated serum stored at −80° C. until future analysis. Hearts were removed through a rapid mid-sternal thoracotomy and processed as described below.\nUrine and tissue analysis was carried out as follows. Instrumentation: A Perkin Elmer (PE) Model 3100 Atomic Absorption Spectrophotometer equipped with a PE HGA-600 Graphite Furnace and PE AS-60 Furnace Autosampler was used for Cu and Fe determinations in urine. Deuterium background correction was employed. A Cu or Fe hollow-cathode lamp (Perkin Elmer Corporation) was used and operated at either […]. The 324.8 nm atomic line was used for Cu and the 248.3 nm atomic line for Fe. The slit width for both Cu and Fe was 0.7 nm. Pyrolytically coated graphite tubes were used for all analyses. The injection volume was 20 μL. A typical graphite furnace temperature program is shown below:\nUrine: Urine was collected in pre-weighed 1.5 ml micro test tubes (eppendorf). After reweighing, the urine specimens were centrifuged and the supernatant diluted 25:1 with 0.02 M 69% Aristar grade HNO3. The sample was stored at 4° C. prior to GF-AAS analysis. If it was necessary to store a sample for a period in excess of 2 weeks, it was frozen and kept at −20° C. Serum: Terminal blood samples were centrifuged and serum treated and stored as per urine until analysis. From the trace metal content of serum from the terminal blood sample and urine collected over the final hour of the experiment, renal clearance was calculated using the following equation: […]\nStatistical analyses were carried out as follows. All values are expressed as mean±SEM and P values <0.05 were considered statistically significant. Student's unpaired t-test was initially used to test for weight and glucose differences between the diabetic and control groups. For comparison of responses during drug exposure, statistical analyses were performed using analysis of variance (Statistics for Windows v.6.1, SAS Institute Inc., California, USA). Subsequent statistical analysis was performed using a mixed model repeated measures ANOVA design (see Example 4)."}, "[2]": {"details": "normal and diabetic rats, acute i.v. increasing doses", "method": "Methods were carried out as follows. Spectrophotometric analysis was conducted as described in Example 2. Cu, Fe and Zn in tissue digests were determined at Hill Laboratories (Hamilton, New Zealand) using either a PE Sciex Elan-6000 or PE Sciex Elan-6100 DRC ICP-MS.\nSample pre-treatment was carried out as follows. Heart: Following removal from the animal, the heart was cleaned of excess tissue, rinsed in buffer to remove excess blood, blotted dry and a wet ventricular weight recorded. Using titanium instruments a segment of left ventricular muscle was dissected and placed in a pre-weighed 5.0 ml polystyrene tube. The sample was freeze-dried overnight to constant weight before 0.45 ml of 69% Aristar grade HNO3 was added. The sample tube was heated in a water bath at 65° C. for 60 minutes. The sample was brought to 4.5 ml with Milli-Q H2O. The resulting solution was diluted 2:1 in order to reduce the HNO3 concentration below the maximum permitted for ICP-MS analysis."}, "[3]": {"test_system": "STZ diabetic rats", "details": "LCM and TEM", "text": "Methods were as follows. Following functional analysis, LV histology was studied by laser confocal (LCM; FIG. 29a-d) and transmission electron microscopy (TEM; FIG. 29e-h). For LCM, LV sections were co-stained with phalloidin to visualize actin filaments, and β1-integrin as a marker for the extracellular space. Ding B, et al., “Left ventricular hypertrophy in ascending aortic stenosis in mice: anoikis and the progression to early failure,” Circulation 101:2854-2862 (2000).\nFor each treatment, 5 sections from each of 3 hearts were examined by both LCM and TEM. For LCM, LV sections were fixed (4% paraformaldehyde, 24 h); embedded (6% agar); vibratomed (120 pm, Campden); stained for f-actin (Phalloidin-488, Molecular Probes) and β1-integrin antibody with a secondary antibody of goat anti-rabbit conjugated to CY5 (1:200; Ding B, et al., “Left ventricular hypertrophy in ascending aortic stenosis in mice: anoikis and the progression to early failure,” Circulation 101:2854-2862 (2000)); and visualised (TCS-SP2, Leica). For TEM, specimens were post-fixed (1:1 v/v 1% w/v 0s0 M 0s0 M PBS); stained (aqueous uranyl acetate (2% w/v, 20 mm) then lead citrate (3 mm)); sectioned (70 nm); and visualized (CM-12, Phillips)."}, "[4]": {"details": "0.67-670 mg/ml in 0.9% saline, four months at 4° C.", "method": "The concentrations of the stock formulations were: 0.67 mg/ml, 6.7 mg/ml, 67 mg/ml, and 670 mg/ml. The formulation was then administered to the rats in doses of 0.1 mg/kg, 1 mg/kg, 10 mg/kg, and 100 mg/kg to the animals respectively."}, "[5]": {"test_system": "diabetic Wistar rats", "details": "six months of treatment"}, "[6]": {"details": "cited from earlier work"}, "[7]": {"test_system": "humans with T2DM", "assay": "6-month randomized double-blind placebo-controlled trial of oral trientine, LV mass by cardiac MRI", "details": "6 months' trientine therapy", "excerpt": "Subjects (30-70 y) who provided written informed consent were eligible for inclusion if they had: T2DM with HbAu1c>7%; cardiac ejection fraction (echocardiography) ≥45% with evidence of diastolic dysfunction but no regional wall-motion anomalies; no new medications for more than 6 months with no change of β-blocker dose; normal electrocardiogram (sinus rhythm, normal PR Interval, normal T wave and QRS configuration, and isoelectric ST segment); and greater than 90% compliance with single-blinded placebo therapy during a 2-w run-in period. Women were required to be post-menopausal, surgically sterile, or non-lactating and non-pregnant and using adequate contraception.\nBefore randomization, potentially eligible subjects entered a 4-w single blind run-in phase of two placebo-capsules twice-daily and underwent screening echocardiography, being excluded if regional wall motion abnormalities or impaired LV systolic function (ejection fraction <50%) were detected. In addition, LV diastolic filling was assessed using mitral inflow Doppler (with pre-load reduction) to ensure patients had abnormalities of diastolic filling; no patient with normal mitral filling proceeded to randomisation. […]\nAt baseline and following 6 months' treatment, LV mass was determined using cardiac MRI, performed in the supine position with the same 1.5 T scanner (Siemens Vision) using a phased array surface coil. […]"}}, "note": "Where two headings read alike, the source gives them in different places."}
{"smiles": "NCCNCCNCCN", "note": "[trientine, N,N′-Bis(2-aminoethyl)-1,2-ethanediamine]", "values": [{"measurement": "Iron excretion versus equivalent volume of saline", "setting": "[1]; diabetic and nondiabetic rats", "result": "not greater"}, {"measurement": "Total iron excretion versus saline", "setting": "[1]; diabetic and nondiabetic rats", "result": "not different"}, {"measurement": "Urinary Cu excretion versus equivalent volume of saline", "setting": "[1]; diabetic and nondiabetic rats, all doses 0.1-100 mg/kg i.v.", "result": "excreted more Cu"}, {"measurement": "Cu excretion in the urine versus saline", "setting": "[1]; diabetic rats, 0.1 mg·kg^−1 i.v. (lowest dose)", "result": "significantly increased"}, {"measurement": "Copper excretion per gram of body weight, diabetic versus nondiabetic animals", "setting": "[1]; in response to each dose of drug", "result": "significantly greater"}, {"measurement": "Total copper excreted over the entire duration of the experiment versus saline controls", "setting": "[1]; nondiabetic and diabetic rats", "result": "significantly increased"}, {"measurement": "Urine excretion versus equivalent volume of saline", "setting": "[1]; nondiabetic rats, 100 mg·kg^−1 i.v.", "result": "increased"}, {"measurement": "Form of urinary Cu by electron paramagnetic resonance spectroscopy", "setting": "[1]; urine of drug-treated animals", "result": "mainly complexed as trientine-Cu^II"}, {"measurement": "Effect on the copper content of cardiac tissue", "setting": "[2]", "result": "no significant effect"}, {"measurement": "Myocardium from trientine-treated nondiabetics", "setting": "[3]", "result": "appeared normal"}, {"measurement": "Stability on storage (efficacy as copper chelator)", "setting": "[4]", "result": "remains active as a copper chelator"}, {"measurement": "Stability on storage (efficacy as copper chelator)", "setting": "[4]; listed as trientine hydrochloride", "result": "without appreciable deterioration in efficacy"}, {"measurement": "Protection of the heart from development of diabetic damage (cardiomyopathy), as judged by histology", "setting": "[5]", "result": "appears to protect"}, {"measurement": "Bioavailability of the active species after oral administration", "setting": "[6]", "result": "< 10", "unit": "%"}, {"measurement": "Drug-related adverse events", "setting": "[7]", "result": "No significant drug-related adverse events"}]}
